Experimental data published in ChEMBL document CHEMBL1909046, “DrugMatrix in vitro pharmacology data”.
pIC50, pKi: −log10 of the molar value.

Legend:
[1] = molecular target: T1, Muscarinic acetylcholine receptor M5 (Homo sapiens, UniProt P08912); type: cell membranes, CHO-K1, Membrane; conditions: cho-k1; further: in other assays of this panel Not Active means under 50% inhibition at 10 µM
T1 sequence (P08912 whole entry): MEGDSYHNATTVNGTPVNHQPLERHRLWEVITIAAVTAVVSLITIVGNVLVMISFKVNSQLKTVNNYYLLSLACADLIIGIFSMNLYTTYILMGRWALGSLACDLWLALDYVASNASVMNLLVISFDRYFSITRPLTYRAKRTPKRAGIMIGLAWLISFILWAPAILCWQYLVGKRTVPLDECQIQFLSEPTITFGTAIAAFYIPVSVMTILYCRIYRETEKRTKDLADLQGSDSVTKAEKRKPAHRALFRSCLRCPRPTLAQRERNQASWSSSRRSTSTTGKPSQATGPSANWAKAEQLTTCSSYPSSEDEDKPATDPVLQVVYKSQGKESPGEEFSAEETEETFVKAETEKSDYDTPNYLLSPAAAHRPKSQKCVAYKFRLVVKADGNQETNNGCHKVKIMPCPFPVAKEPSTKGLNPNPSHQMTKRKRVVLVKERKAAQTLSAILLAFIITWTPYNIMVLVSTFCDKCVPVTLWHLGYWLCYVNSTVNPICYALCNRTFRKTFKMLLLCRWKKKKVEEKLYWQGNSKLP

[2] = molecular target: Protein kinase C alpha type (Homo sapiens, UniProt P17252); type: cell-based; conditions: sf9;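 further: inhibition of PKCalpha kinase activity measured in an enzyme assay with histone as the phosphorylation substrate; in other assays of this panel Not Active means under 50% inhibition at 10 µM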
[3] = molecular target: 5-hydroxytryptamine receptor 1B (Rattus norvegicus, UniProt P28564); type: cell membranes, Wistar, Cerebral cortex, Membrane; further: in other assays of this panel Not Active means under 50% inhibition at 10 µM
Nitric oxide synthase 1 = Nitric oxide synthase 1 (Rattus norvegicus, UniProt P29476); type: tissue-based, Cerebellum; further: in other assays of this panel Not Active means under 50% inhibition at 10 µM
[4] = molecular target: T2, Neuropeptide Y receptor type 2 (Homo sapiens, UniProt P49146); type: cell membranes, Membrane; conditions: kan-ts; further: in other assays of this panel Not Active means under 50% inhibition at 10 µM
T2 sequence (P49146 whole entry): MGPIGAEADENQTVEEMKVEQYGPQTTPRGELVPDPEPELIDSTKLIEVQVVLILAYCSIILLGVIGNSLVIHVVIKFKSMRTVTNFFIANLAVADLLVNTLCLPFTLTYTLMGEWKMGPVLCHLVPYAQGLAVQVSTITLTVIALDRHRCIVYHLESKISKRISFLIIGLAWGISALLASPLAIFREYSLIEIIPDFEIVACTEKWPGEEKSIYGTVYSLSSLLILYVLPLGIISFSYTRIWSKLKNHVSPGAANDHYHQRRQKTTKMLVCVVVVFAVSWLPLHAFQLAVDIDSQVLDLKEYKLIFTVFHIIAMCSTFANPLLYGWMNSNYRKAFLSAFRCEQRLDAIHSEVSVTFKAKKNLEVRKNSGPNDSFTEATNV

Caspase-1 = molecular target: T3, Caspase-1 (Homo sapiens, UniProt P29466); parameters: species or system Escherichia coli
T3 sequence (P29466 whole entry): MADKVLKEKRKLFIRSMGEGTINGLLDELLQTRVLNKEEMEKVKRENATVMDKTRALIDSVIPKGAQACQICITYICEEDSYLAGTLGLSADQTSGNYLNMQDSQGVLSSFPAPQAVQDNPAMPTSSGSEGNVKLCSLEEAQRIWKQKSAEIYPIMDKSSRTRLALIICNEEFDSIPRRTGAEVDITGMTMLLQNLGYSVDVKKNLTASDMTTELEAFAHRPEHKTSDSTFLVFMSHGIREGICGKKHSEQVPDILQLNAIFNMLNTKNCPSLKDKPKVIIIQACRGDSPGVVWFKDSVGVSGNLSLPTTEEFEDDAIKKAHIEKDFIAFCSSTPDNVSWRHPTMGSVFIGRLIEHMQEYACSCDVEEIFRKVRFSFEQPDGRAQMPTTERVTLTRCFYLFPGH

[5] = molecular target: T4, Amine oxidase [flavin-containing] A (Homo sapiens, UniProt P21397); assay: DRUGMATRIX: Monoamine Oxidase MAO-A enzyme inhibition (substrate: Kynuramine); parameters: species or system BTI-TN-5B1-4; conditions: bti-tn-5b1-4; Not Active = under 50% inhibition at 10 µM
T4 sequence (P21397 whole entry): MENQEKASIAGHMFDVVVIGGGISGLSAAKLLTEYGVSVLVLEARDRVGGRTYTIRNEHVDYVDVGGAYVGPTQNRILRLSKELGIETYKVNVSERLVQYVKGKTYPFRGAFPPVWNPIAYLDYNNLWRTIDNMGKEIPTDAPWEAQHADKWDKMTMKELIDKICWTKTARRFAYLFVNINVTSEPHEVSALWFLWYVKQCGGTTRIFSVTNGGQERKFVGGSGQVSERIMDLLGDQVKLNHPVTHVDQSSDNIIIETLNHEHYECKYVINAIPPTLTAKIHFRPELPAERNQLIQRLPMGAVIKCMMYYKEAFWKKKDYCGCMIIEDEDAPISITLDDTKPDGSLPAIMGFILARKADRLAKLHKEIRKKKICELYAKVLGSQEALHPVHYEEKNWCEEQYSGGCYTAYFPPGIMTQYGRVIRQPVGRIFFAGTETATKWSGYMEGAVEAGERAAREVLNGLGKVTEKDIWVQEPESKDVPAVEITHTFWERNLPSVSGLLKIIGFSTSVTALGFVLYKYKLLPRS

Nitric oxide synthase 1, sequence (P29476 whole entry): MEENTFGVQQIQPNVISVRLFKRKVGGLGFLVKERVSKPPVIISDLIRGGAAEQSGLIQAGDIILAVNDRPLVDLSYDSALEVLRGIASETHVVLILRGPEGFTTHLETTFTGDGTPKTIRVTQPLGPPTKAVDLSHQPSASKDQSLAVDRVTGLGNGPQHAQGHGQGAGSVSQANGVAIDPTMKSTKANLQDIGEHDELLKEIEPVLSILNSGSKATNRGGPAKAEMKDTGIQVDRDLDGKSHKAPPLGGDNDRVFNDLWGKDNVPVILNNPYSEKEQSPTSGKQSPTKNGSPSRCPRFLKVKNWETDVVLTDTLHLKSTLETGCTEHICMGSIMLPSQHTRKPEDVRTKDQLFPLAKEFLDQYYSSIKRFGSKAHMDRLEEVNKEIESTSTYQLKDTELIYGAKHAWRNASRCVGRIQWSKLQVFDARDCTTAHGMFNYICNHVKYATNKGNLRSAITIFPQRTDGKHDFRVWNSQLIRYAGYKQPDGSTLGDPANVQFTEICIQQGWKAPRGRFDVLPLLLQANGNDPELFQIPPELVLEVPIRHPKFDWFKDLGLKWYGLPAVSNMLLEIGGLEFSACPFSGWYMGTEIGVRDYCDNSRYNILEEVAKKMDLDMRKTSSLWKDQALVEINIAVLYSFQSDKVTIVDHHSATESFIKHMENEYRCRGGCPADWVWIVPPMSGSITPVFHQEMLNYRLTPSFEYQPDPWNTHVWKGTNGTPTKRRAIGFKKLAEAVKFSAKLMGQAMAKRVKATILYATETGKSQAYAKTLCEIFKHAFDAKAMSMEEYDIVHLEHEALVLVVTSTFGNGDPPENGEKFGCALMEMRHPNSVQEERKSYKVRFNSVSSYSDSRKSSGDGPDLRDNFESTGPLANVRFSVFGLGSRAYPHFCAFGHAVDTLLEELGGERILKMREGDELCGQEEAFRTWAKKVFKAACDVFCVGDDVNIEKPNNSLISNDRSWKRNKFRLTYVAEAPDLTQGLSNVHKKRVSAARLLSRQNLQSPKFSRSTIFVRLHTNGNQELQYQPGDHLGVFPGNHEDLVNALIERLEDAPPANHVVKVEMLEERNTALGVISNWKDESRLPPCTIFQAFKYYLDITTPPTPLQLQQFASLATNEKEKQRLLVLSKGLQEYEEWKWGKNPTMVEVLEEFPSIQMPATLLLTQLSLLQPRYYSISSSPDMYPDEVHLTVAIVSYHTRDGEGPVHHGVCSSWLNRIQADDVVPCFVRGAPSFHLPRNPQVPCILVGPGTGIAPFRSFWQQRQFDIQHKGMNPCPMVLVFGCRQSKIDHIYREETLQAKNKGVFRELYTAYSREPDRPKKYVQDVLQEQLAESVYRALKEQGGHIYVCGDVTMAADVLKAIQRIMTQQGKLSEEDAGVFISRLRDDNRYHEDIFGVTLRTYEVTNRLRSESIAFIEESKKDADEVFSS
5-hydroxytryptamine receptor 1B, sequence (P28564 whole entry): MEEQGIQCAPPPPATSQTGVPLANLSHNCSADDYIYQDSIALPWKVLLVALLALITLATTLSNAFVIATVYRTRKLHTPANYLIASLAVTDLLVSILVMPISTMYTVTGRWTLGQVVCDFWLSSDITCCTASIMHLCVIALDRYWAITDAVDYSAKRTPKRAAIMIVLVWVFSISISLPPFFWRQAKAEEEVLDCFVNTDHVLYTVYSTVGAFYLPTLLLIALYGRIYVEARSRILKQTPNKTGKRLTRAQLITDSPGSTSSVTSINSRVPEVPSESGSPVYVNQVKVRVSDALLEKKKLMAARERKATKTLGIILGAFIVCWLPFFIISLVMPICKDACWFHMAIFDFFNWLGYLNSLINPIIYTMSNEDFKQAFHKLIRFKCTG

| Compound | IC50 [1] | IC50 [2] | IC50 [3] | IC50 (Nitric oxide synthase 1) | IC50 [4] | IC50 (Caspase-1) | IC50 [5] | pIC50 ([3]; read-out: IC50) | pKi ([3]; read-out: Ki) | Ki [1] | Ki [2] | Ki [3] | Ki (Nitric oxide synthase 1) | Ki [4] | Ki (Caspase-1) | Ki [5] |
| --- | --- | --- | --- | --- | --- | --- | --- | --- | --- | --- | --- | --- | --- | --- | --- | --- |
| ClC1=C(Cl)[C@]2(Cl)[C@@H]3[C@@H]4C[C@@H]([C@H]5O[C@@H]45)[C@@H]3[C@@]1(Cl)C2(Cl)Cl [DIELDRIN] | Not Active | Not Active | Not Active | Not Active | Not Active | Not Active | Not Active | – | – | – | – | – | – | – | – | – |
| c1ccc(Cn2ccnc2)cc1 | Not Active | Not Active | Not Active | Not Active | Not Active | Not Active | Not Active | – | – | – | – | – | – | – | – | – |
| C[C@]12CC[C@@H](O)C[C@@H]1CC[C@@H]1[C@@H]2CC[C@]2(C)C(=O)CC[C@@H]12 [ANDROSTERONE] | Not Active | Not Active | Not Active | Not Active | Not Active | Not Active | Not Active | – | – | – | – | – | – | – | – | – |
| CC12CCC(CC1)C(C)(C)O2 [EUCALYPTOL] | Not Active | Not Active | Not Active | Not Active | Not Active | Not Active | Not Active | – | – | – | – | – | – | – | – | – |
| Nc1nc(N)c2nc(CNc3ccc(C(=O)N[C@@H](CCC(=O)O)C(=O)O)cc3)cnc2n1 [AMINOPTERIN] | Not Active | Not Active | Not Active | Not Active | Not Active | Not Active | Not Active | – | – | – | – | – | – | – | – | – |
| Nc1ccc(Cc2ccc(N)cc2)cc1 | Not Active | Not Active | Not Active | Not Active | Not Active | Not Active | Not Active | – | – | – | – | – | – | – | – | – |
| COc1ccccc1OCCNCC(O)COc1cccc2[nH]c3ccccc3c12 (stereo unspecified) [CARVEDILOL] | Not Active | Not Active | – | Not Active | Not Active | Not Active | Not Active | 5.89 | 6.23 | – | – | – | – | – | – | – |
| CCN1CCN(c2cc3c(cc2F)c(=O)c(C(=O)O)cn3C2CC2)CC1 [ENROFLOXACIN] | Not Active | Not Active | Not Active | Not Active | Not Active | Not Active | Not Active | – | – | – | – | – | – | – | – | – |
| CC(C)Cc1ccc([C@H](C)C(=O)O)cc1 [DEXIBUPROFEN] | Not Active | Not Active | Not Active | Not Active | Not Active | Not Active | Not Active | – | – | – | – | – | – | – | – | – |
| O=C(O)CNCP(=O)(O)O [GLYPHOSATE] | Not Active | Not Active | Not Active | Not Active | Not Active | Not Active | Not Active | – | – | – | – | – | – | – | – | – |
| CO[C@H]1O[C@@H]2O[C@@]3(C)CC[C@H]4[C@H](C)CC[C@@H]([C@H]1C)[C@@]24OO3 | Not Active | Not Active | Not Active | Not Active | Not Active | Not Active | Not Active | – | – | – | – | – | – | – | – | – |
| Nc1ccc(C(=O)O)c(O)c1 [AMINOSALICYLIC ACID] | Not Active | Not Active | Not Active | Not Active | Not Active | Not Active | Not Active | – | – | – | – | – | – | – | – | – |
| Nc1nc(F)nc2c1ncn2[C@@H]1O[C@H](CO)[C@@H](O)[C@@H]1O [FLUDARABINE] | Not Active | Not Active | Not Active | Not Active | Not Active | Not Active | Not Active | – | – | – | – | – | – | – | – | – |
| CHROMIC CHLORIDE | Not Active | Not Active | Not Active | Not Active | Not Active | Not Active | Not Active | – | – | Not Active | Not Active | Not Active | Not Active | Not Active | Not Active | Not Active |
| O=C(O)CO [GLYCOLIC ACID] | Not Active | Not Active | Not Active | Not Active | Not Active | Not Active | Not Active | – | – | – | – | – | – | – | – | – |
| COC(=O)C[C@](O)(CCC(C)(C)O)C(=O)O[C@@H]1C(OC)=C[C@]23CCCN2CCc2cc4c(cc2[C@H]13)OCO4 [HARRINGTONINE] | Not Active | Not Active | Not Active | Not Active | Not Active | Not Active | Not Active | – | – | – | – | – | – | – | – | – |
| CC12CCC(CC1=O)C2(C)C (stereo unspecified) [CAMPHOR] | Not Active | Not Active | Not Active | Not Active | Not Active | Not Active | Not Active | – | – | – | – | – | – | – | – | – |
| CCN1CCN(C(=O)N[C@@H](C(=O)N[C@@H]2C(=O)N3[C@@H]2SC(C)(C)[C@@H]3C(=O)O)c2ccccc2)C(=O)C1=O [PIPERACILLIN] | Not Active | Not Active | Not Active | Not Active | Not Active | Not Active | Not Active | – | – | – | – | – | – | – | – | – |
| C=CCO [ALLYL ALCOHOL] | Not Active | Not Active | Not Active | Not Active | Not Active | Not Active | Not Active | – | – | – | – | – | – | – | – | – |
| O=C(O)CCc1nc(-c2ccccc2)c(-c2ccccc2)o1 [OXAPROZIN] | Not Active | Not Active | Not Active | Not Active | Not Active | Not Active | Not Active | – | – | – | – | – | – | – | – | – |
| c1ccc2sc(SSc3nc4ccccc4s3)nc2c1 [BENZOTHIAZYL DISULFIDE] | Not Active | Not Active | Not Active | Not Active | Not Active | Not Active | Not Active | – | – | – | – | – | – | – | – | – |
| O=C1CN(/N=C/c2ccc([N+](=O)[O-])o2)C(=O)N1 [NITROFURANTOIN] | Not Active | Not Active | Not Active | Not Active | Not Active | Not Active | Not Active | – | – | – | – | – | – | – | – | – |
| NCC(CC(=O)O)c1ccc(Cl)cc1 (stereo unspecified) [BACLOFEN] | Not Active | Not Active | Not Active | Not Active | Not Active | Not Active | Not Active | – | – | – | – | – | – | – | – | – |
| OC[C@H]1O[C@@H]2O[C@H]3[C@H](O)[C@@H](O)[C@@H](O[C@H]4[C@H](O)[C@@H](O)[C@@H](O[C@H]5[C@H](O)[C@@H](O)[C@@H](O[C@H]6[C@H](O)[C@@H](O)[C@@H](O[C@H]7[C@H](O)[C@@H](O)[C@@H](O[C@H]8[C@H](O)[C@@H](O)[C@@H](O[C@H]1[C@H](O)[C@H]2O)O[C@@H]8CO)O[C@@H]7CO)O[C@@H]6CO)O[C@@H]5CO)O[C@@H]4CO)O[C@@H]3CO [BETADEX] | Not Active | Not Active | Not Active | Not Active | Not Active | Not Active | Not Active | – | – | – | – | – | – | – | – | – |
